For orientation: IC50 means the concentration at which inhibition is half-maximal. A lower IC50 goes with greater potency in that assay.

The source of these data is patent US8143274B2, “1-(2H)-isoquinolone derivative” (Chugai Seiyaku Kabushiki Kaisha, priority 2004, dated 2012).

Assay [1] has as its system human colon cancer cell line HCT116. Nature of the assay: Measurement of cell growth inhibitory activity (Cell Counting Kit-8). In kind it is cell-based. To be noted: HCT-116, 96 h, HCT116, 2,000 cells/well, cultured 4 days. Here is the method: [Measurement of Cell Growth Inhibitory Activity]
Several representative examples of the compound group of the present invention were measured in terms of cell growth inhibitory activity.
Cancer cell growth inhibitory activity was measured using Cell Counting Kit-8 manufactured by Dojindo Laboratories. The human colon cancer cell line HCT116 obtained from American Type Culture Collection (Virginia, U.S.A) was inoculated in a 96-well culture plate at a concentration of 2,000 cells/well. Thereafter, a certain concentration of compound was added thereto, and the obtained mixture was then cultured at 37° C. in 5% CO2 for 4 days. On the 4th day of the culture, a Cell Counting Kit-8 solution was added to the culture product, and absorbance (measurement wavelength: 450 nm; reference wavelength: 615 nm) was measured in accordance with protocols included with the kit. Thereafter, 50% growth inhibitory concentration (IC50) was calculated.
For orientation: Tetrazolium assays rely on reduction of a dye to a coloured formazan, in cell work by metabolically active cells.

Assay [2] concerns human colon cancer cell line HCT116 transplanted subcutaneously. Nature of the assay: Measurement of antitumor effect in HCT116 tumor-bearing nude mouse. In kind it is in vivo, BALB/c nude mouse. To be noted: oral, administered twice (initiation date and 3 days after). The method, then: [Measurement of Antitumor Effect]
A representative example of the compound group of the present invention was measured in terms of antitumor effect.
Such antitumor effect was examined, using a tumor-bearing mouse produced by transplanting the human colon cancer cell line HCT116 obtained from American Type Culture Collection (Virginia, U.S.A) into the inguinal subcutis of a BALB/c nude mouse purchased from Charles River Laboratories Japan, Inc. The purchased nude mouse was quarantined for 1 week. Thereafter, approximately 5×10^6 HCT116 cells were transplanted subcutaneously. When the size of a tumor thereof became about 200 mm^3, the mouse was subjected to the present experiment.
Each compound was dissolved or suspended in a solution to be administered, and 0.5 ml of the solution was orally administered. Such administration was carried out twice in total, that is, on the initiation date of administration and 3 days after the administration. The antitumor effect was calculated as a tumor growth inhibition by comparing the solution administration group with a control group in terms of tumor growth. Tumor growth inhibition(TGI)=(1−the tumor growth amount of agent-treated group/the tumor growth amount of control group)×100(%)

In assay [1], `CCOC(=O)Nc1ccc2cc(-c3ccccc3C(F)(F)F)[nH]c(=O)c2c1` [Compound 61, ethyl[1-oxo-3-(2-trifluoromethylphenyl)-1,2-dihydroisoquinolin-7-yl]carbamate] returned a half-maximal inhibitory concentration (IC50) of 21 nM. Besides, the “TGI (%) on day 7” value in assay [2] (dose 200 mg/kg) amounted to 73%.

`O=c1[nH]c(-c2ccccc2)cc2ccc(N3CCC(O)C3)cc12` (stereo not drawn) [Compound 36, 7-(3-hydroxypyrrolidin-1-yl)-3-phenyl-2H-isoquinolin-1-one] showed an IC50 in assay [1] of 18 nM.

`O=c1[nH]c(-c2ccccc2C(F)(F)F)cc2ccc(N3CCCCC3)cc12` [Compound 10, 7-piperidin-1-yl-3-(2-trifluoromethylphenyl)-2H-isoquinolin-1-one] returned an IC50 in assay [1] of 97 nM. The “TGI (%) on day 7” value in assay [2] (dose 50 mg/kg) is listed as 91%.

In the case of `O=c1[nH]c(-c2ccccc2C(F)(F)F)cc2ccc(N3CCC(O)CC3)cc12` [Compound 29, 7-(4-hydroxypiperidin-1-yl)-3-(2-trifluoromethylphenyl)-2H-isoquinolin-1-one], the IC50 in assay [1] was determined as 52 nM.

`O=c1[nH]c(-c2ccccc2)cc2ccc(N3CCOCC3)cc12` [Compound 8, 7-morpholin-4-yl-3-phenyl-2H-isoquinolin-1-one] had a half-inhibitory concentration (IC50) in assay [1] of 28 nM. For the same compound, the “TGI (%) on day 7” value in assay [2] (dose 12.5 mg/kg) was 96%.

In turn, `O=c1[nH]c(-c2ccccc2)cc2ccc(N3CCC(CO)CC3)cc12` [Compound 21, 7-(4-hydroxymethylpiperidin-1-yl)-3-phenyl-2H-isoquinolin-1-one] displayed an IC50 in assay [1] of 20 nM.
